Data taken from patent US4594246A, “Pharmaceutically-acceptable amine salts of 6-β-halopenicillanic acids” (Leo Pharmaceutical Products, priority 1979, dated 1986).
≈ marks a conversion by molar mass, not a printed value. Where two headings read alike, the source gives them in different places.

What was measured:
[1] = system: Staphylococcus aureus CJ9; experiment: Susceptibility of β-lactamase producing bacterial strains to β-lactam antibiotics in 1:1 combination (Table II); format: cell-based
[2] = system: Klebsiella pneumoniae HE7; experiment: as above; format: cell-based
[3] = system: Proteus mirabilis HJ28; experiment: as above; format: cell-based
[4] = system: Staphylococcus aureus CJ145; experiment: as above; format: cell-based
[5] = system: Escherischia coli HA58 (RTEM); experiment: organism not typed; format: cell-based
[6] = system: β-lactamases; settings: well known; cited from earlier work
[7] = as such or as hydrochloride; cited from earlier work
[8] = serial dilution in agar medium, inoculum 10^5 CFU, alone or in 1:1 combination (value of each partner), read-out: IC50
[9] = serial dilution in agar medium, inoculum 10^4 CFU, alone or in 1:1 combination (value of each partner), read-out: IC50

Structure (SMILES): CC1(C)S[C@@H]2[C@H](NC(=O)[C@H](N)c3ccccc3)C(=O)N2[C@H]1C(=O)O [Ampicillin]
- MIC [1, 8]: 10 µg/mL
- IC50 [2, 9]: > 50 µg/mL
- minimum inhibitory concentration (MIC) [3, 9]: > 50 µg/mL
- IC50 [4, 8]: 1.6 µg/mL
- minimum inhibitory concentration (MIC) [5]: > 100 µg/mL

Structure (SMILES): CC1(C)S[C@@H]2[C@H](NC(=O)Cc3ccccc3)C(=O)N2[C@H]1C(=O)O [Benzylpenicillin]
- MIC [1]: > 100 µg/mL
- sensitivity to β-lactamases [6]: very sensitive to β-lactamases
- IC50 [2]: > 100 µg/mL
- minimum inhibitory concentration (MIC) [3]: > 100 µg/mL
- IC50 [4]: 10 µg/mL
- minimum inhibitory concentration (MIC) [5]: > 100 µg/mL

Structure (SMILES): CC1(C)S[C@@H]2[C@H](/N=C/N3CCCCCC3)C(=O)N2[C@H]1C(=O)O [Mecillinam]
- MIC [1, 8]: > 50 µg/mL
- IC50 [2, 9]: > 25 µg/mL
- minimum inhibitory concentration (MIC) [3, 9]: 6.3 µg/mL
- IC50 [4, 8]: > 50 µg/mL
- minimum inhibitory concentration (MIC) [5]: 1.3 µg/mL (≈ 3.99 µM)

Structure (SMILES): CCN(CC)CCOC(=O)[C@@H]1N2C(=O)[C@@H](NC(=O)Cc3ccccc3)[C@H]2SC1(C)C [Penethamate]
- concentration of benzylpenicillin in the udder [7]: rapid and high concentration of benzylpenicillin in the udder
- effect in the treatment of mastitis [7]: very effective in the treatment of mastitis
